Laboratory results taken from patent US6602856B1, “Antagonists of alpha-melanocyte stimulating hormone and methods based thereon” (priority 1995, dated 2003).
Non-standard residues stand in square brackets, D forms with d. No end group written: not given here. Nle = CCCC[C@H](N)C(=O)O

Columns and labels:
[1] = target: T1, endogenous amphibian MSH-receptors (Xenopus laevis, UniProt A0A1L8GF34); format: cell-based; settings: against 15 nM α-MSH; melanophores pretreated with 1 nM melatonin; mean±SE
T1 sequence (A0A1L8GF34 1-317): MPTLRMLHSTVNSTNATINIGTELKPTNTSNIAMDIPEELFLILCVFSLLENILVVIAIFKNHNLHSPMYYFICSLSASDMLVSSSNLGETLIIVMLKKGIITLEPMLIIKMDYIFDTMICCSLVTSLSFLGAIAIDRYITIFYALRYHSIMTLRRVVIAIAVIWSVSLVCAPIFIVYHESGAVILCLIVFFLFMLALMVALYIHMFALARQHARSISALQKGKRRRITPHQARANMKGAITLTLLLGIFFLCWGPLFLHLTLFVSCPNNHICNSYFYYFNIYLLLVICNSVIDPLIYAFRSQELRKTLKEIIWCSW
Procedure: Melanin dispersion responses were quantitated by measuring transmittance through a monolayer of cultured melanophores pretreated with 1 nM melatonin (Potenza, et. al., 1992, Anal Biochem. 206, 315-22) and curve fit with a logistic equation (De Lean et al., 1978, Am J. Physiol. 235, E97-E102).
Broken lines indicate 99% confidence level.
(§1) Each point represents the mean and SSD of four independent transmittance measurements. Ti=initial transmittance (2 min.). Tf=final transmittance (60 min.).
(§2) For dose-response studies all tripeptides were synthesized on Rink Amide MBHA resin 0.25 mmol scale using standard Fmoc chemistry. After synthesis, peptides were purified suing HPLC and reverse-phase chromatography on a C18 column. The dose-response curves were obtained by microtiter plate assays (Potenza et al, 1992, Pigment Cell Res. 5, 372-378). Melanophore cells (18,000/well) were plated on 96-well tissue culture plates (Falcon).

[2] = tested on: cAMP stimulation evoked by AVT; experiment: AVT evoked intracellular cAMP stimulation in Xenopus melanophores; format: cell-based, Xenopus laevis; settings: AVT 8 nM
Procedure: (§3) Oxytocin antagonist GVT ([d(CH2)5, Tyr (Me)^2, Orn^8]-Vasotocin; from Peninsula), at 20 μM, is used as a control to block responses evoked by 8 Nm AVT. Intracellular CAMP measurements were taken from confluent Xenopus melanophores grown in 24-well tissue culture plates (Falcon). Each bar represents the mean and SSD of four independent measurements. *(T-test; P<0.001) for all groups except those bearing asterisks.
(§4) Melanophores were plated confluently into 24-well tissue culture (Falcon) plates two days before the assay. Immediately prior to an assay, cells were washed with 70% L-15 medium (Sigma) containing 0.05% bovine serum albumin and then treated with 1 nm melatonin in the same medium. Then, cells were washed for 5 min in 70% L-15+0.05% bovine serum albumin+0.5 mm 3-isobutyl-1-methylxanthine (Aldrich)+1 nm melatonin, followed by 30 min of treatment with the test drug in the same media. After the drug treatment, cells were washed twice with 70% phosphate-buffered saline.
(§5) Oxytocin antagonist GVT ([d(CH2)5, Tyr (Me)^2, Orn^8]-Vasotocin; from Peninsula), at 20 μM, is used as a control to block responses evoked by 8 nM AVT.

[3] = tested on: α-MSH mediated cAMP second messenger stimulation; experiment: α-MSH mediated intracellular cAMP stimulation in Xenopus melanophores; format: cell-based, Xenopus laevis; settings: peptide at 40 μM; α-MSH 10 nM
Procedure: as §3, §4, §5

[4] = tested on: [Arg^8]-vasotocin (AVT) activated pigment dispersion in Xenopus melanophores; settings: read-out: EC50 (pigment dispersion)
Procedure: as §1, §2
(§6) The 221,184 component library was organized as 96 sub-libraries with 2,304 different peptide combinations per pool, each defined by the chemical structure of the amino terminal position.

[5] = tested on: vasoactive intestinal peptide (VIP) activated pigment dispersion in Xenopus melanophores; settings: read-out: EC50 (pigment dispersion)
Procedure: as §1, §2, §6

| Substance | IC50 (μM) [1] | other results |
| --- | --- | --- |
| D-Trp-Arg-εAhx-NH2 [A12] | Inactive | – |
| D-Trp-Arg-γAbu-NH2 [A11] | Inactive | – |
| D-Trp-Arg-Nle-NH2 [A2] | – | block of cAMP stimulation evoked by AVT ([2]; peptide at 40 μM): does not block; block of α-MSH mediated cAMP stimulation [3]: blocks |
| [Arg^8]-vasotocin [AVT] | – | EC50 [4]: ~2 nM |
| [d(CH2)5, Tyr (Me)^2, Orn^8]-Vasotocin [GVT, reference compound] | – | block of responses evoked by AVT (cAMP) ([2]; antagonist at 20 μM, control): block |
| D-Trp-Arg-Ala-NH2 [A13] | Inactive | – |
| [dW]-Asp-[Nle]-NH2 [B8] | Inactive | – |
| Vasoactive Intestinal Peptide [VIP] | – | EC50 [5]: ~1 nM |
| D-Trp-Arg-βAla-NH2 [A14] | Inactive | – |
